Assay results from US20150316568A1, “Method for Screening Lyophilized Parenteral Formulations” (Cubist Pharmaceuticals, Inc., priority 2014, published 2015).

Tests used:
[1] = X-Ray Powder Diffraction (XRPD) of solid form pre/post lyophilization; format: physicochemical; details: crystalline powder before lyophilization
[2] = Source text: 1. […] 2. […] 3. […] 4. […] 5. […] 6. […] 7. […] 8. […] 9. […] 10.

| solid form after the lyophilization process (XRPD) [1] | solubility improvement [2] | Compound |
| --- | --- | --- |
| semi-crystalline forms | – | O=C(O)c1cn(C2CC2)c2cc(N3CCNCC3)c(F)cc2c1=O [Ciprofloxacin] |
| amorphous form | 3-4 × | CN1CCN(c2cc3c(cc2F)c(=O)c(C(=O)O)cn3-c2ccc(F)cc2)CC1 [Difloxacin] |
| amorphous form | 3-4 × | Fc1ccc([C@@H]2CCNC[C@H]2COc2ccc3c(c2)OCO3)cc1 [Paroxetine] |
